SMILES strings stand for the structures.

As a reminder, the IC50 is the concentration at which inhibition is half-maximal. A high value points to weaker potency.

System in the first experiment: not given
Assay: not given
As to conditions: times the activity of histamine; cited from earlier work.
As for `CCCCC/C=C\C\C=C/C=C/C=C/[C@@H](SC[C@H](NC(=O)CC[C@H](N)C(=O)O)C(=O)NCC(=O)O)[C@@H](O)CCCC(=O)O` [LTC4], the “spasmogen activity relative to histamine” value is 1000 times.
Consider `CCCCC/C=C\C\C=C/C=C/C=C/[C@@H](SC[C@H](N)C(=O)NCC(=O)O)[C@@H](O)CCCC(=O)O` [LTD4], for which the “spasmogen activity relative to histamine” value is 1000 times.
With `CCCCC/C=C\C\C=C/C=C/C=C/[C@@H](SC[C@H](N)C(=O)O)[C@@H](O)CCCC(=O)O` [LTE4], the “spasmogen activity relative to histamine” value is listed as 1000 times.

For another experiment, the target named is T1, RBL-1 5-Lipoxygenase (Rattus norvegicus, UniProt P12527).
T1 construct: supernatant from homogenized RBL-1 cells; endogenous in cells; host or cells: RBL-1 cells (10,000×g supernatant of homogenate)
T1 sequence (P12527 1-673): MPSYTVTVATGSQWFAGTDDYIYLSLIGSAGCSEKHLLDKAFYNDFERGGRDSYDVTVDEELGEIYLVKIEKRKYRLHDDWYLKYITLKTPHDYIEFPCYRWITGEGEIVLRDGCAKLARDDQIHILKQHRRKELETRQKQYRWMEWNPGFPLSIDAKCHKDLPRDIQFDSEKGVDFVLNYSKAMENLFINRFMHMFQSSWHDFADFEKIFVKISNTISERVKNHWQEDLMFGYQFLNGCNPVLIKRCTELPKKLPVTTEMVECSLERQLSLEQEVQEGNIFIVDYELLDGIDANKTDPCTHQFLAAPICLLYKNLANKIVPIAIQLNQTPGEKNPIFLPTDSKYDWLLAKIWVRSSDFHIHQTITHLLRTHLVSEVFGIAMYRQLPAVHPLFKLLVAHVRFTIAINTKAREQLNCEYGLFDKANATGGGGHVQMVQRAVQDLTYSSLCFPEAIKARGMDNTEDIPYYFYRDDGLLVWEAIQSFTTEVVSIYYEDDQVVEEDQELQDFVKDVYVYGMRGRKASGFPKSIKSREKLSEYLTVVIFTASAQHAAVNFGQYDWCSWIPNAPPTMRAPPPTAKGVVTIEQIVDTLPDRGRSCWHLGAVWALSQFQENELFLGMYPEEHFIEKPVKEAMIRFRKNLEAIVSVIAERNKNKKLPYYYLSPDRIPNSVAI
The experiment in a line: RBL-1 5-lipoxygenase assay (10,000×g supernatant from homogenized RBL-1 cells, [14C] arachidonic acid). The format is biochemical. The note with it: pH 7.0, 37° C., 5 min preincubation, 0.042 mM arachidonic acid; linear regression on three concentrations. As for the experimental part: The potencies of the compounds as 5-lipoxygenase inhibitors were determined using a RBL-1 5-lipoxygenase assay. The procedure of Jakschik et al. was used (Jakschik, B. A.; Lee, L. H.; Shuffer, G.; Parker, C. W., Prostaglandins, 1978, 16, 733; Jakschik, B. A.; Sun, F. F.; Lee, L. H.; Steinhoff, M. M. Biochem. Biophys. Res. Commun., 1980, 95, 100; […]., Biochem. Biophys. Res. Commun., 1981, 102, 624). The enzyme was prepared as a 10,000×gsupernatant from homogenized RBL-1 cells. Because of variability in the enzyme content from culture to culture, an amount of supernatant was chosen to give a net production of 3300-3800 dpm of 5-HETE under the assay conditions (total cell protein 9-20 μg/assay). All reactions were run in duplicate. In a total volume of 100 μL, the appropriate amount of enzyme was incubated with test compound (prepared in 5% DMSO, 95% 0.2 M Tris, pH 8.5) in a phosphate buffer (45 mM sodium phosphate, 0.83 mM EDTA, 0.083% gelatin, 0.1 mM glutathione, 0.83 mM calcium chloride, 0.012 mM indomethacin) at pH 7.0 and 37° C. for 5 min. The reaction was initiated by the addition of 20 μL of a solution of arachidonic acid in phosphate buffer. […] Remaining products were eluted with methanol/water/acetic acid (70:30:1). Activity was measured as the total radioactivity in the 5-LO products, and inhibition was calculated at (1-D/C)×100%, where D is the activity in the presence of the test compound and C is the control activity.
Molecule `CN(O)C=CC(=O)c1ccc(OCc2ccccc2)cc1` [Example 1a, 1-(4-(Benzyloxy)phenyl)-3-(N-hydoxy-N-methyl)aminoprop-2-en-1-one] displayed an IC50 of 1600 nM.
In the case of `CC(c1ccc2ccccc2c1)N(O)C=CC(=O)c1ccc2ccccc2c1` (stereo not drawn) [Example 1b], the IC50 was 2200 nM.
Take `O=C(C=CN(O)C1CCCCC1)c1ccc2ccccc2c1` [Example 1c]: half-maximal inhibition (IC50) required 2500 nM.
The same measure, in the same setting: for `O=C(C=CN(O)Cc1ccc(OCc2ccccc2)cc1)C1CC1` [Example 1e] the value was 3100 nM; for `CN(O)C=CC(=O)c1cc2ccccc2s1` [Example 1i], 440 nM; for `O=C(C=CN(O)Cc1ccc2ccccc2c1)C1CC1` [Example 1j], 1500 nM.
Same read-out and setting: for `O=C(C=CN(O)Cc1ccccc1)c1ccc2ccccc2c1` [Example 2a, 1-(2-naphthyl)-3-(N-hydoxy-N-benzyl) aminoprop-2-en-1-one] the value was 2300 nM; for `O=C(C=CN(O)c1ccccc1)c1ccc2ccccc2c1` [Example 2b], 1100 nM; for `O=C(C=CN(O)Cc1ccccc1)c1ccc(Cl)cc1` [Example 2e], 250 nM.
Same read-out and setting: for `CC(=O)C=CN(O)Cc1ccc(OCc2ccccc2)cc1` [Example 3a] the value was 7700 nM.

System in a further experiment: not given
Assay: not given
As to conditions: cited from earlier work.
With `CCCCC/C=C\C\C=C/C=C/C=C/[C@@H](SC[C@H](NC(=O)CC[C@H](N)C(=O)O)C(=O)NCC(=O)O)[C@@H](O)CCCC(=O)O` [LTC4], the “effect of inhaled LTC4” value is reported as “causes the immediate development of symptoms resembling those of an asthmatic attack”.

Another experiment deals with inflammatory cells such as polymorphonuclear leukocytes.
Assay: not given
The note with it: cited from earlier work.
As for `CCCCC/C=C\C[C@@H](O)/C=C/C=C/C=C\[C@@H](O)CCCC(=O)O` [LTB4], the “chemotactic activity for inflammatory cells” value is on record as “potent chemotactic factors”.
